Data set [1] is described as follows: Cell viability by MTT reduction. The settings on record: mouse. For orientation: Tetrazolium assays rely on reduction of a dye to a coloured formazan, in cell work by metabolically active cells.
Data set [2] concerns RAW 264.7 macrophages. The experiment in a line: Cell viability by MTT reduction. The conditions noted are these: for Cell toxicity / influence on cell viability (in words): RAW 264.7 cells treated with compounds.
The test system of data set [3] is LPS-induced NO production in RAW 264.7 macrophage cells. In words: Inhibition of LPS-induced NO production (nitrite, Griess reagent). The conditions noted are these: pretreated 1 h with compounds, then LPS (1 μg/mL) for 24 h, mean ± SD, three independent experiments. (Nitrite, measured by Griess reagent, commonly stands in for NO production.)
Description: Assays for NO production and cell viability were carried out as previously described [23]. […] The plates were pretreated with various concentrations of samples for 30 min and incubated with LPS (1 μg/mL) for 24 h. The amount of NO was determined by the nitrite concentration in cultured RAW264.7 macrophage supernatants using the Griess reagent. The cell viability was evaluated by MTT reduction.
Where [4] appears, read: Mus musculus, RAW264.7, read-out: IC50 (concentration that caused 50% inhibition of NO production), LPS-activated RAW 264.7 macrophage cells.
Where [5] appears, read: read-out: IC50 (concentration that caused 50% inhibition of NO production), LPS-activated RAW 264.7 macrophage cells.

Read-outs that look alike come from different tables or passages of the source.

With `COc1cc([C@H]2OC[C@H]3[C@@H]2CO[C@@H]3c2cc(OC)c(O[C@@H]3O[C@H](CO)[C@@H](O)[C@H](O)[C@H]3O)c(OC)c2)cc(OC)c1O` [Compound 8, acanthoside B], the viability – broadly, the share of living cells, or the viability signal relative to a control – at 24 h, 100 µM in data set [1] came to 82.4 ± 1.27%.
Consider `COc1cc([C@H]2OC[C@H]3[C@@H]2CO[C@@H]3c2ccc3c(c2)OCO3)ccc1O[C@@H]1O[C@H](CO)[C@@H](O)[C@H](O)[C@H]1O` [Compound 9, simlexoside], for which, in data set [2], the “Cell toxicity / influence on cell viability (in words)” value is “Some cell toxicity was observed”. Besides, the viability at 24 h, 100 µM in data set [1] (RAW 264.7 macrophages) is 54.5 ± 2.21%. For the same compound, the IC50 in data set [3] (setting [4]) was determined as 53 ± 2.75 µM.
As for `COc1cc([C@H]2OC[C@H]3[C@@H]2CO[C@@H]3c2ccc3c(c2)OCO3)ccc1O` [Compound 7, (+)-xanthoxylol], in data set [1] (RAW 264.7 macrophages), the viability at 24 h, 100 µM came out at 88.4 ± 3.71%. The IC50 in data set [3] (setting [4]) turned out to be 27.6 µM; in data set [3] (setting [5]), 21.6 ± 1.28 µM.
Turning to `COc1cc(OC)cc([C@@H](O)[C@H]2COC[C@@H]2Cc2ccc(O)c(O)c2)c1` [Compound 1, 3-(3',4'-dihydroxybenzyl)-4-[(7S),7-hydroxy-3,5-dimethoxybenzyl]tetrahydrofuran], in data set [1] (RAW 264.7 macrophages), the viability at 24 h, 100 µM amounted to 84.8 ± 2.71%. For the same compound, the IC50 in data set [3] (setting [4]) is 49.9 ± 6.56 µM.
In the case of `c1cc2c(cc1[C@@H]1OCC3C1CO[C@H]3c1ccc3c(c1)OCO3)OCO2` (single isomer, unassigned; (-)) [Compound 2, (−)-sesamin], the viability at 24 h, 100 µM in data set [1] was found to be 95.5 ± 2.01%. Besides, the values for the IC50 in data set [3] (setting [4]) and in data set [3] (setting [5]) were 49.9 to 65.1 µM and 38.9 ± 2.86 µM, respectively.
Consider `O=C1OC[C@H](Cc2ccc3c(c2)OCO3)[C@H]1Cc1ccc2c(c1)OCO2` [Compound 3, (−)-hinokinin], for which, in data set [2], the “Cell toxicity / influence on cell viability (in words)” value is listed as “Some cell toxicity was observed”. In data set [1] (RAW 264.7 macrophages), this compound gave a viability at 24 h, 100 µM of 50.2 ± 1.55%. Also, the IC50 in data set [3] (setting [4]) was 21.6 ± 1.19 µM.
As to `N=C(N)NN` [Aminoguanidine, reference compound], the “Cell viability (%)” value in data set [2] (RAW 264.7 cells, at a concentration of 100 μM, MTT reduction, mean ± SD, three independent experiments) was 84.61 ± 2.50%. Besides, the IC50 in data set [3] (setting [5]) amounted to 6.51 ± 1.15 µM.
As to `COc1cc([C@H]2OC[C@@H]3[C@H]2CO[C@H]3c2ccc3c(c2)OCO3)ccc1O` [Compound 6, (+)-piperitol], the viability at 24 h, 100 µM in data set [1] (RAW 264.7 macrophages) stood at 84.1 ± 2.46%. In addition, the IC50 in data set [3] (setting [4]) turned out to be 22.3 ± 1.1 µM.
On to (+)-pinoresinol [Compound 5], for which the IC50 in data set [3] (setting [5]) amounted to 10.3 ± 2.37 µM.

These data come from publication PMC6270163, “Anti-inflammatory Lignans from the Fruits of Acanthopanax sessiliflorus” (Molecules, 2012).
